Tests used:
[1] = biological target: MAPK3 (Homo sapiens, UniProt P27361); assay: Kinome profiling MAPK3; type: biochemical; conditions: read-out: Inhibitory activity MAPK3; for inhibition at 0.1 µM: 100 nM
Procedure: (§1) . The kinome-wide selectivity was determined following the methods previously reported by Mohedas et al., ACS Chem Biol 2013, 8, 1291-1302 and Sanvitale et al., PLoS One 2013, 8, e62721.

[2] = biological target: T1, caALK3 (Homo sapiens, UniProt P36894, Q233D); assay: Luciferase reporter assay constitutively active ALK3; conditions: read-out: Cell Based Assay caALK3 IC50
T1 construct: expressed in transfected cells; host or cells: C2C12 BRE-Luc cells infected with adenovirus (MOI 100)
T1 sequence (P36894 24-532 Q233D): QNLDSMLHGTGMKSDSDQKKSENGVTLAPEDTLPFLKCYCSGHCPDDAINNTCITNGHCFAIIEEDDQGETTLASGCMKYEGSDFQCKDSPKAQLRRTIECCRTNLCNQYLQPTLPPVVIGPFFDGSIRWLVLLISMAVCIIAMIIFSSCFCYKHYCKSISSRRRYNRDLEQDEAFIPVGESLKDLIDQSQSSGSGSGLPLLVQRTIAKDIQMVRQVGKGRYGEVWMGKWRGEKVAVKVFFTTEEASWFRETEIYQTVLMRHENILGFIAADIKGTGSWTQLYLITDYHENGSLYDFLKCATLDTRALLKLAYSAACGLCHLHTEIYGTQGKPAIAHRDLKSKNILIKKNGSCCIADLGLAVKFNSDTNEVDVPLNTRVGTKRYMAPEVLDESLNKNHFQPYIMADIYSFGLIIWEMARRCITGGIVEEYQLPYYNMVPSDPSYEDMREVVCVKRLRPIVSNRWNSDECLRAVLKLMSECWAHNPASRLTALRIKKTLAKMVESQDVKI
From the text: C2Cl2 […] cells stably transfected with BMP responsive element from the Id promoter fused to luciferase reporter gene (BRE-Luc) were generously provided by Dr. Peter ten Dijke (Leiden University Medical Center, NL) following the methods described by Zilberberg et al., BMC cell biology 2007, 8, 41-50. Human embryonic kidney 293T cells stably transfected with the TGF-β responsive element from the PAI-1 promoter fused to luciferase reporter gene (CAGA-Luc) were generously provided by Dr. Howard Weiner (Brigham and Women's Hospital, Boston, Mass.) following the methods described by Oida et al., PloS one 2011, 6, e18365. C2Cl2 Bre-Luc and 293T CAGA-Luc cells were seeded in DMEM supplemented with 2% FBS at 20,000 cells per well in tissue culture treated 96-well plates (Costar® 3610; Corning). The cells were incubated for 1 h (37° C. and 10% CO2) and allowed to settle and attach. Compounds of interest or DMSO were diluted in DMEM and added at final compound concentrations of 1 nM to 10 μM. Cells were then incubated for 30 min. Adenovirus expressing constitutively active BMP and TGF-β type I receptors (Ad.caALK1-5), generously provided by Dr. Akiko Hata (University of to California at San Francisco), were added to achieve a multiplicity of infection (MOI) of 100. Plates were incubated overnight at 37° C. Cell viability was assayed with an MIT (3-(4,5-dimethylthiazol-2-yl)-2,5-diphenyl tetrazolium bromide) colorimetric assay (Promega) per the manufacturer's instructions. Media was discarded, and firefly luciferase activity was measured (Promega) according to manufacturer's protocol. Light output was measured using a Spectramax L luminometer (Molecular Devices) with an integration time of one second per well. Data was normalized to 100% of incremental BRE-Luc activity due to adenoviruses specifying caALK1, 2, or 3, or the incremental CAGA-Luc activity due to adenoviruses specifying caALK4 or 5.

[3] = biological target: ROCK2 (Homo sapiens, UniProt O75116); assay: Kinome profiling ROCK2; type: biochemical; conditions: read-out: Inhibitory activity ROCK2; for inhibition at 0.1 µM: 100 nM
Sequence of ROCK2 (O75116 whole entry): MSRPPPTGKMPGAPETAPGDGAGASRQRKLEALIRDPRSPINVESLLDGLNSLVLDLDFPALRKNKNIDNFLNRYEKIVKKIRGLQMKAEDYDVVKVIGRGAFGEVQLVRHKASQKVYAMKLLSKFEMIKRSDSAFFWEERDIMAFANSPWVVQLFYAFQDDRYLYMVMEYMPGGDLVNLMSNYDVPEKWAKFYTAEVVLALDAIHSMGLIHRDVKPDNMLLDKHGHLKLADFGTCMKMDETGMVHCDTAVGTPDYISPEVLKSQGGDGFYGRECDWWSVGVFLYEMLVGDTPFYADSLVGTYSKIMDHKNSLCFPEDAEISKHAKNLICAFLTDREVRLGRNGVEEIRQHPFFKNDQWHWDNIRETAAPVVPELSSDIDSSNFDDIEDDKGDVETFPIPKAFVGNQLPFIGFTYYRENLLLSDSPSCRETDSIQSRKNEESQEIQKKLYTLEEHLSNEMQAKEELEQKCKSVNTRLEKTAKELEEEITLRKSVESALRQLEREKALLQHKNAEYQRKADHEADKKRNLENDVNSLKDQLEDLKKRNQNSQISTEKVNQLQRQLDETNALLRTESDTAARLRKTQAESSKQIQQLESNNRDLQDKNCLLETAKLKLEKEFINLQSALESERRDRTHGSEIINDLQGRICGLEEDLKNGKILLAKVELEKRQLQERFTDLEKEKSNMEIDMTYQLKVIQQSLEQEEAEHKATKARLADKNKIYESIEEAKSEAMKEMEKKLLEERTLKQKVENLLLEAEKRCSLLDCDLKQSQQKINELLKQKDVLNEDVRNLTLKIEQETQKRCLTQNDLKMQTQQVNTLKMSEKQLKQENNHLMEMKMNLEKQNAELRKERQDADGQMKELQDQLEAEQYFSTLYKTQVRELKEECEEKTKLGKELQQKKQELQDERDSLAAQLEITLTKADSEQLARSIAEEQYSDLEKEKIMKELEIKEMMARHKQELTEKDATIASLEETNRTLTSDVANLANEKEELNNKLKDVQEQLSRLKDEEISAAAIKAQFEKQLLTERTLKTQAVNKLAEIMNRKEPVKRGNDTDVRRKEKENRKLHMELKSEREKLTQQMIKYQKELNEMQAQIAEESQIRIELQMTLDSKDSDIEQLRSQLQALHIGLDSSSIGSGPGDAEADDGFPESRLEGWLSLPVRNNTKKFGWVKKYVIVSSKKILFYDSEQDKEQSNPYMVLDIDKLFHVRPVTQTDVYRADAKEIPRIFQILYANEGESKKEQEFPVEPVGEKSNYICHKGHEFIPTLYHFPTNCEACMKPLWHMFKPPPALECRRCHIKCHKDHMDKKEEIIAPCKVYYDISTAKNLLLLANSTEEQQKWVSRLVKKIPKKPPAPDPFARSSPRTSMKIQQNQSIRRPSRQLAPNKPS
Procedure: as §1

[4] = biological target: EPH-A4 (Homo sapiens, UniProt P54764); assay: Kinome profiling EPH-A4; type: biochemical; conditions: read-out: Inhibitory activity EPH-A4; for inhibition at 0.1 µM: 100 nM
Sequence of EPH-A4 (P54764 20-986): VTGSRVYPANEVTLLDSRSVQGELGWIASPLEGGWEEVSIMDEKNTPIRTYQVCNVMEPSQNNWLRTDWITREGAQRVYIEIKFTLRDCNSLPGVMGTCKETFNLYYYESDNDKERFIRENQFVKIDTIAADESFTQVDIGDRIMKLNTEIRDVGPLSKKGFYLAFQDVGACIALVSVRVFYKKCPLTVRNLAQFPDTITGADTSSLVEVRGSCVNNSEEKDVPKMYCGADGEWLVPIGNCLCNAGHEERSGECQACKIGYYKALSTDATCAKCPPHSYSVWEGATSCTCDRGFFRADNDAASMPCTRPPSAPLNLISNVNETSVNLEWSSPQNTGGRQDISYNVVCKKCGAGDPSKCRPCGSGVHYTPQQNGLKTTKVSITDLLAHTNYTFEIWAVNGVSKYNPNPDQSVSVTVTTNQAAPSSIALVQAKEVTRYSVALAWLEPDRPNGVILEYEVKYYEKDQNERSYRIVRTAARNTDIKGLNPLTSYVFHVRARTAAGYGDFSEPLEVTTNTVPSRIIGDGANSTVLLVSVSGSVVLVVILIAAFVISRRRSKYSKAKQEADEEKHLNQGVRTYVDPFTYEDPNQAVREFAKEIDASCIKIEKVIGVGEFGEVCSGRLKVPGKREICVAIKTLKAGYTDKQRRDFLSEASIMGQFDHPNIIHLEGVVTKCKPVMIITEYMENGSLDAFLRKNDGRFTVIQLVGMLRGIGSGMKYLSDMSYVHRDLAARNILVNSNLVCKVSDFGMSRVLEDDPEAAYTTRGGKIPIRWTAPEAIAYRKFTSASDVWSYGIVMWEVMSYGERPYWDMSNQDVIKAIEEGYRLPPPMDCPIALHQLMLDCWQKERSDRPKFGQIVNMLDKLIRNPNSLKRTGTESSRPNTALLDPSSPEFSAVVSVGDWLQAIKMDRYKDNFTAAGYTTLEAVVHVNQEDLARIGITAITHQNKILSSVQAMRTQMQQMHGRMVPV
Procedure: as §1

[5] = biological target: AKT3 (Homo sapiens, UniProt Q9Y243); assay: Kinome profiling AKT3; type: biochemical; conditions: read-out: Inhibitory activity AKT3; for inhibition at 0.1 µM: 100 nM
Sequence of AKT3 (Q9Y243 whole entry): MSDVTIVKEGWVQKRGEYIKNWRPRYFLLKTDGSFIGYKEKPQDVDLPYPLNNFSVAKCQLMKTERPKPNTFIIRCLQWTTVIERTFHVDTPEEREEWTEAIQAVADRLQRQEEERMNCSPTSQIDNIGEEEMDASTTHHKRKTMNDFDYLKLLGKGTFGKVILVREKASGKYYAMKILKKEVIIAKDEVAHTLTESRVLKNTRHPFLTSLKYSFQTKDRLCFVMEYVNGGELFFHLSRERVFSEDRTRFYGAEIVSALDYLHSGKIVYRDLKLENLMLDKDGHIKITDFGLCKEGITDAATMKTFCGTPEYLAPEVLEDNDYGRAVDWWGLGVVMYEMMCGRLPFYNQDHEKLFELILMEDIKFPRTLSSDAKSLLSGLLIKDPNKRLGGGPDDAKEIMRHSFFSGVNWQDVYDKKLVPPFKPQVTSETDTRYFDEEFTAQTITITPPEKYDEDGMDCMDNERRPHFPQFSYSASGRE
Procedure: as §1

[6] = biological target: AURORA-B (Homo sapiens, UniProt Q96GD4); assay: Kinome profiling AURORA-B; type: biochemical; conditions: read-out: Inhibitory activity AURORA-B; for inhibition at 0.1 µM: 100 nM
Sequence of AURORA-B (Q96GD4 whole entry): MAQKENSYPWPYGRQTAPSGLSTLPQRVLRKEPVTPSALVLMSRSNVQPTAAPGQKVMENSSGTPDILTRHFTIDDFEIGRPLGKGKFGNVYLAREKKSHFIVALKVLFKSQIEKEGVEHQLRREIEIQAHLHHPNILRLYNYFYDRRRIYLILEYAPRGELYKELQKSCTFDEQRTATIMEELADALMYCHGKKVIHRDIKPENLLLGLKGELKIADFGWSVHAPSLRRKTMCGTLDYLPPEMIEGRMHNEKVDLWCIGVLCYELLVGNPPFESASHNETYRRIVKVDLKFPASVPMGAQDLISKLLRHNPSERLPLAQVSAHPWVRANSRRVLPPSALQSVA
Procedure: as §1

[7] = biological target: T2, PKC-1 (Homo sapiens, UniProt P41743); assay: Kinome profiling PKC-1; type: biochemical; conditions: read-out: Inhibitory activity PKC-1; for inhibition at 0.1 µM: 100 nM
T2 sequence (P41743 2-596 limits assumed): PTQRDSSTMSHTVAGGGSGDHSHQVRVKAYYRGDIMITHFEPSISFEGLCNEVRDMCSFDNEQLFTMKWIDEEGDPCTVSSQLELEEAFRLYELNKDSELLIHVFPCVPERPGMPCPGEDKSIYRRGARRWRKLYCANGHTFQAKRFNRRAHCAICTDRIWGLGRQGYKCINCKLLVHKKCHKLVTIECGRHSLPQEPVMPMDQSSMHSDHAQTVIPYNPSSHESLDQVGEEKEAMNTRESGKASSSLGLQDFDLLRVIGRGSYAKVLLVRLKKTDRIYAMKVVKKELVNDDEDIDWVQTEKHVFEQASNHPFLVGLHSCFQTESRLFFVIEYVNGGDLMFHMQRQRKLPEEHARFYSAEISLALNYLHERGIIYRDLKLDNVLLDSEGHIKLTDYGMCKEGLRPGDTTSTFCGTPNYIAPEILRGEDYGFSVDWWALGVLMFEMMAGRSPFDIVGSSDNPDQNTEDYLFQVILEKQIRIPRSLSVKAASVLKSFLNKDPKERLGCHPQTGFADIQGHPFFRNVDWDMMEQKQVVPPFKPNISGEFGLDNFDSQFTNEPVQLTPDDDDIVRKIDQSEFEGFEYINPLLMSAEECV
Procedure: as §1

[8] = biological target: MSSK1 (Homo sapiens, UniProt Q9UPE1); assay: Kinome profiling MSSK1; type: biochemical; conditions: read-out: Inhibitory activity MSSK1; for inhibition at 0.1 µM: 100 nM
Sequence of MSSK1 (Q9UPE1 whole entry): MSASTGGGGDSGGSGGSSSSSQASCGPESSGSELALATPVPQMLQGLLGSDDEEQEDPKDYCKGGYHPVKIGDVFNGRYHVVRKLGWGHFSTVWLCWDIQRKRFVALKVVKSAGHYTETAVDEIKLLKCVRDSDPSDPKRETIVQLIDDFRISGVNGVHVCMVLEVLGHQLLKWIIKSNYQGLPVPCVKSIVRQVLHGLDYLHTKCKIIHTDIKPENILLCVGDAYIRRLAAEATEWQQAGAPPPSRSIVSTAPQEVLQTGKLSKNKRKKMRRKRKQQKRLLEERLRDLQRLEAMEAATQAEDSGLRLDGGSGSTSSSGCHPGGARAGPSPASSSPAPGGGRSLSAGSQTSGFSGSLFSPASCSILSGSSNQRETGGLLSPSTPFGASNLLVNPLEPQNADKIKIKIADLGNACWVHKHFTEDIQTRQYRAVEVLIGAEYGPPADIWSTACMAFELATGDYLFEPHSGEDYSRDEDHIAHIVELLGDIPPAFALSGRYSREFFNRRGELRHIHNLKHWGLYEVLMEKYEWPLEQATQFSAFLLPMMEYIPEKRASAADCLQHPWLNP
Procedure: as §1

[9] = biological target: T3, PHKγ2 (Homo sapiens, UniProt P15735); assay: Kinome profiling PHKγ2; type: biochemical; conditions: read-out: Inhibitory activity PHKγ2; for inhibition at 0.1 µM: 100 nM
T3 sequence (P15735 1-406): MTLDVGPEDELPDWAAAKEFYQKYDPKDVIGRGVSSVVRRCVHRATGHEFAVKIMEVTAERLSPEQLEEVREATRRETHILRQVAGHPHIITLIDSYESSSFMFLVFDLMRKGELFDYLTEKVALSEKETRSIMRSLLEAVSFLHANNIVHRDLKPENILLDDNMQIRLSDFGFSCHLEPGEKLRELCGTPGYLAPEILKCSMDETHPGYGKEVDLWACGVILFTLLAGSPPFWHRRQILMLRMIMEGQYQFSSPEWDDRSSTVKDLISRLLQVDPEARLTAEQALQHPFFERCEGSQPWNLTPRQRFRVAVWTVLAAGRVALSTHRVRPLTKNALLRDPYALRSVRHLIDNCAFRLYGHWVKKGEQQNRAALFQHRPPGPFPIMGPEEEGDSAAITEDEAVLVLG
Procedure: as §1

Sequence of MAPK3 (P27361 whole entry): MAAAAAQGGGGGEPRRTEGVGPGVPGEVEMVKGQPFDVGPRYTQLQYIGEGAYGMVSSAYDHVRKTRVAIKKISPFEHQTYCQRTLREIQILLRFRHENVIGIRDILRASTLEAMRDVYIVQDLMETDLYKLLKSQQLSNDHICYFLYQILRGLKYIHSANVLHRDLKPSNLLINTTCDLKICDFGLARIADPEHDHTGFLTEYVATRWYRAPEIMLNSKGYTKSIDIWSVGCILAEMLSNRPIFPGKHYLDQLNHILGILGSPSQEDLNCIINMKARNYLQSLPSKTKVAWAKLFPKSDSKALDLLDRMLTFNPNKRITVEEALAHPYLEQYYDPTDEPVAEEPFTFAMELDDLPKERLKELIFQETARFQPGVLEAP

SMILES: COc1cc(-c2cc(-c3ccc(N4CCNCC4)cc3)cnc2C)cc(OC)c1OC [Compound 10, 1-(4-(6-methyl-5-(3,4,5-trimethoxyphenyl)pyridin-3-yl)phenyl)piperazine]
- inhibition at 0.1 µM [1]: 1%
- inhibition at 1 µM [1]: 2%
- IC50 [2]: 382 nM
- inhibition at 0.1 µM [3]: 4%
- inhibition at 1 µM [3]: 3%
- inhibition at 0.1 µM [4]: 7%
- inhibition at 1 µM [4]: 5%
- inhibition at 0.1 µM [5]: 1%
- inhibition at 1 µM [5]: 1%
- inhibition at 0.1 µM [6]: 2%
- inhibition at 1 µM [6]: 3%
- inhibition at 0.1 µM [7]: 12%
- inhibition at 1 µM [7]: 3%
- inhibition at 0.1 µM [8]: 2%
- inhibition at 1 µM [8]: 2%
- inhibition at 0.1 µM [9]: 1%
- inhibition at 1 µM [9]: 0%

SMILES: COc1cc(-c2cc(-c3ccc(N4CCNCC4)cc3)cnc2N)cc(OC)c1OC [Compound 15, 5-(4-(piperazin-1-yl)phenyl)-3-(3,4,5-trimethoxyphenyl)pyridin-2-amine]
- inhibition at 0.1 µM [1]: 1%
- inhibition at 1 µM [1]: 0%
- IC50 [2]: 8 nM
- inhibition at 0.1 µM [3]: -1%
- inhibition at 1 µM [3]: 2%
- inhibition at 0.1 µM [4]: -1%
- inhibition at 1 µM [4]: 45%
- inhibition at 0.1 µM [5]: 0%
- inhibition at 1 µM [5]: 2%
- inhibition at 0.1 µM [6]: 3%
- inhibition at 1 µM [6]: 8%
- inhibition at 0.1 µM [7]: 1%
- inhibition at 1 µM [7]: 1%
- inhibition at 0.1 µM [8]: -2%
- inhibition at 1 µM [8]: 0%
- inhibition at 0.1 µM [9]: 2%
- inhibition at 1 µM [9]: 3%

— US20170190705A1, “Compositions and Methods for Inhibiting BMP” (THE BRIGHAM AND WOMAN'S HOSPITAL, INC., priority 2014, published 2017)
